# Active and inactive are the calls of the source. The calls are words filed in the database; no cut-off is given here.
# Target: T1, Cruzipain (Trypanosoma cruzi, UniProt P25779)
# Test: Inhibition of recombinant Trypanosoma cruzi cruzain using Z-FR-AMC as substrate by fluorometry
# Settings: not given
# T1 sequence (P25779 whole entry): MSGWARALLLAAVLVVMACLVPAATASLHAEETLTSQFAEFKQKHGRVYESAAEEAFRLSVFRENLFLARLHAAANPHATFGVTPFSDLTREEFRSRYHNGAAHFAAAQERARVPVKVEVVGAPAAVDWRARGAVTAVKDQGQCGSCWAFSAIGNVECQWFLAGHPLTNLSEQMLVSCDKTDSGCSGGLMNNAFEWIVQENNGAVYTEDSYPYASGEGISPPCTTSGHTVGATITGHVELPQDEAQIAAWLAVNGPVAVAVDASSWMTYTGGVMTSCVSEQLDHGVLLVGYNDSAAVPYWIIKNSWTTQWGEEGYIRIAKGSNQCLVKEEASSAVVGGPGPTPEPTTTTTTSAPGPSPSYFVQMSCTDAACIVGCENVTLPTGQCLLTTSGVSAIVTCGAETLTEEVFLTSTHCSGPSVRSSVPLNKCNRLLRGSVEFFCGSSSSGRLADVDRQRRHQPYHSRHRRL
row,Structure (SMILES),IC50 [µM]
1,O=C(c1ccc(Nc2nc(NCCCO)c3ccccc3n2)cc1)N1CCOCC1,15
2,OCCCNc1nc(Nc2ccc(Cl)cc2)nc2ccccc12,7.3
3,Oc1cccc(Nc2nc(NCc3ccccc3)c3ccccc3n2)c1,18
4,OCCCNc1nc(NCc2ccccc2)c2ccccc2n1,22
5,Oc1ccc(Nc2nc(NCc3ccccc3)c3ccccc3n2)cc1,18
6,Clc1ccc(Nc2nc(NCCN3CCOCC3)c3ccccc3n2)cc1,2.5
7,O=C(c1ccc(Nc2nc(NCCN3CCOCC3)c3ccccc3n2)cc1)N1CCOCC1,13.5
8,c1ccc(CNc2nc(Nc3ccccc3)nc3ccccc23)cc1,8
9,OCCCNc1nc(Nc2cccc(F)c2)c2ccccc2n1,25
10,c1ccc(CNc2nc(Nc3nccs3)nc3ccccc23)cc1,16

# Target: Cruzipain (Trypanosoma cruzi) (UniProt P25779)
# Test: Inhibition of recombinant Trypanosoma cruzi cruzain using Z-FR-AMC as substrate and compound-enzyme complex preincubated for 5 mins in presence of 0.01% Triton-X100 by fluorometry relative to control
# Settings: not given
# Cruzipain (Trypanosoma cruzi), sequence (P25779 123-467 limits assumed): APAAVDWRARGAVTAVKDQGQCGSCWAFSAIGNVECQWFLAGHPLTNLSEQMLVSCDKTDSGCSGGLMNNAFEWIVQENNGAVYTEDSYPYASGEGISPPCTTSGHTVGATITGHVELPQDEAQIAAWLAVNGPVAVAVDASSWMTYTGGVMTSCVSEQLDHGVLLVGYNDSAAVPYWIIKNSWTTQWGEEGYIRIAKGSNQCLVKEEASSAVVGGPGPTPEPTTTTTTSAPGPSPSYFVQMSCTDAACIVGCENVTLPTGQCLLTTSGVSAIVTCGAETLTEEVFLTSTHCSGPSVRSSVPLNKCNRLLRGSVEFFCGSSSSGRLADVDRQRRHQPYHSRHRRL
row,Structure (SMILES),inhibition [%]
1,O=C(c1ccc(Nc2nc(NCCCO)c3ccccc3n2)cc1)N1CCOCC1,53
2,OCCCNc1nc(Nc2ccc(Cl)cc2)nc2ccccc12,36
3,Oc1cccc(Nc2nc(NCc3ccccc3)c3ccccc3n2)c1,54
4,OCCCNc1nc(NCc2ccccc2)c2ccccc2n1,31
5,Oc1ccc(Nc2nc(NCc3ccccc3)c3ccccc3n2)cc1,56
6,Clc1ccc(Nc2nc(NCCN3CCOCC3)c3ccccc3n2)cc1,67
7,O=C(c1ccc(Nc2nc(NCCN3CCOCC3)c3ccccc3n2)cc1)N1CCOCC1,63
8,c1ccc(CNc2nc(Nc3ccccc3)nc3ccccc23)cc1,50
9,OCCCNc1nc(Nc2cccc(F)c2)c2ccccc2n1,67
10,c1ccc(CNc2nc(Nc3nccs3)nc3ccccc23)cc1,60

# Target: T1, Cruzipain
# Test: Competitive inhibition of Trypanosoma cruzi cruzain assessed as inhibition constant using varying levels of Z-FR-AMC as substrate by Michaelis-Menten analysis
# Settings: not given
row,Structure (SMILES),Ki [µM]
1,c1ccc(CNc2nc(Nc3ccccc3)nc3ccccc23)cc1,1.7

# Tested on: Trypanosoma brucei brucei
# Test: Antitrypanosomal activity against Trypanosoma brucei brucei Lister 427 bloodstream forms measured after 72 hrs by SYBR green dye based assay
# Type: functional, organism-based
# Settings: Lister 427, 72 h
row,Structure (SMILES),EC50 [µM]
1,O=C(c1ccc(Nc2nc(NCCCO)c3ccccc3n2)cc1)N1CCOCC1,> 50
2,OCCCNc1nc(Nc2ccc(Cl)cc2)nc2ccccc12,9
3,Oc1cccc(Nc2nc(NCc3ccccc3)c3ccccc3n2)c1,13.8
4,OCCCNc1nc(NCc2ccccc2)c2ccccc2n1,> 50
5,Oc1ccc(Nc2nc(NCc3ccccc3)c3ccccc3n2)cc1,> 50
6,Clc1ccc(Nc2nc(NCCN3CCOCC3)c3ccccc3n2)cc1,23.6
7,O=C(c1ccc(Nc2nc(NCCN3CCOCC3)c3ccccc3n2)cc1)N1CCOCC1,> 50
8,c1ccc(CNc2nc(Nc3ccccc3)nc3ccccc23)cc1,17.5
9,OCCCNc1nc(Nc2cccc(F)c2)c2ccccc2n1,17.8
10,c1ccc(CNc2nc(Nc3nccs3)nc3ccccc23)cc1,> 50

# Target: Rhodesain (Trypanosoma brucei rhodesiense, UniProt Q95PM0)
# Test: Inhibition of recombinant Trypanosoma brucei rhodesiense MVAT4 rhodesain expressed in Pichia pastoris using Z-FR-AMC as substrate by fluorometry
# Settings: not given
# Rhodesain, sequence (Q95PM0 whole entry): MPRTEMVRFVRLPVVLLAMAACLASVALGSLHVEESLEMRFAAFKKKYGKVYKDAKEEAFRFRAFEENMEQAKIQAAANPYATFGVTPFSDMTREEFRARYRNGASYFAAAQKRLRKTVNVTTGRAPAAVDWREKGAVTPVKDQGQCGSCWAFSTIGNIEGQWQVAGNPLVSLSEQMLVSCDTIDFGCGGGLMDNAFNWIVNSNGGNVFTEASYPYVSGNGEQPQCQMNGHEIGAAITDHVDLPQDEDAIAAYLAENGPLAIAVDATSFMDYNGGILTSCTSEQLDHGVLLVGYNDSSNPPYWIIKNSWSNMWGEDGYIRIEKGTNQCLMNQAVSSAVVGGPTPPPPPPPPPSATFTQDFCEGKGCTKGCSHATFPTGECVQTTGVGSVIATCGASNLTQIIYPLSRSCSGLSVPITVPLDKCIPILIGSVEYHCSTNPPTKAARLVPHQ
row,Structure (SMILES),IC50 [µM]
1,Oc1cccc(Nc2nc(NCc3ccccc3)c3ccccc3n2)c1,26
2,Oc1ccc(Nc2nc(NCc3ccccc3)c3ccccc3n2)cc1,23
3,c1ccc(CNc2nc(Nc3ccccc3)nc3ccccc23)cc1,17.5
4,c1ccc(CNc2nc(Nc3nccs3)nc3ccccc23)cc1,12.5

# Target: Cruzipain (Trypanosoma cruzi) (UniProt P25779)
# Test: Competitive inhibition of Trypanosoma cruzi cruzain assessed as increase in apparent Kapp up to 25 uM using varying levels of Z-FR-AMC as substrate by Michaelis-Menten analysis
# Settings: dose microM <=25
row,Structure (SMILES),inhibition
1,c1ccc(CNc2nc(Nc3ccccc3)nc3ccccc23)cc1,Active

# Tested on: Trypanosoma cruzi
# Test: Trypanocidal activity against amastigotes form of Trypanosoma cruzi CA-I/72 infected in mouse C2C12 cells assessed as inhibition of parasite replication incubated for 48 hrs by DAPI staining based microscopic analysis
# Type: functional, organism-based
# Settings: CA-I/72, C2C12, 48 h
row,Structure (SMILES),EC50 [µM]
1,O=C(c1ccc(Nc2nc(NCCCO)c3ccccc3n2)cc1)N1CCOCC1,22
2,OCCCNc1nc(Nc2ccc(Cl)cc2)nc2ccccc12,0.25
3,Oc1cccc(Nc2nc(NCc3ccccc3)c3ccccc3n2)c1,0.93
4,OCCCNc1nc(NCc2ccccc2)c2ccccc2n1,0.5
5,Oc1ccc(Nc2nc(NCc3ccccc3)c3ccccc3n2)cc1,5.9
6,Clc1ccc(Nc2nc(NCCN3CCOCC3)c3ccccc3n2)cc1,370
7,O=C(c1ccc(Nc2nc(NCCN3CCOCC3)c3ccccc3n2)cc1)N1CCOCC1,15
8,c1ccc(CNc2nc(Nc3ccccc3)nc3ccccc23)cc1,0.047
9,OCCCNc1nc(Nc2cccc(F)c2)c2ccccc2n1,0.09
10,c1ccc(CNc2nc(Nc3nccs3)nc3ccccc23)cc1,5.6

# Tested on: not listed separately
# Test: Selectivity index, ratio of CC50 for cytotoxicity against mouse C2C12 cells to EC50 for trypanocidal activity against Trypanosoma cruzi […] infected in mouse C2C12 cells
# Type: toxicity, cell-based
# Settings: read-out: Selectivity Index
row,Structure (SMILES),selectivity ratio
1,O=C(c1ccc(Nc2nc(NCCCO)c3ccccc3n2)cc1)N1CCOCC1,> 0.5
2,OCCCNc1nc(Nc2ccc(Cl)cc2)nc2ccccc12,> 40
3,Oc1cccc(Nc2nc(NCc3ccccc3)c3ccccc3n2)c1,> 11
4,OCCCNc1nc(NCc2ccccc2)c2ccccc2n1,> 193
5,Oc1ccc(Nc2nc(NCc3ccccc3)c3ccccc3n2)cc1,> 2
6,Clc1ccc(Nc2nc(NCCN3CCOCC3)c3ccccc3n2)cc1,> 27
7,O=C(c1ccc(Nc2nc(NCCN3CCOCC3)c3ccccc3n2)cc1)N1CCOCC1,> 1
8,c1ccc(CNc2nc(Nc3ccccc3)nc3ccccc23)cc1,> 211
9,OCCCNc1nc(Nc2cccc(F)c2)c2ccccc2n1,> 109
10,c1ccc(CNc2nc(Nc3nccs3)nc3ccccc23)cc1,> 2

# Target: Cruzipain (Trypanosoma cruzi) (UniProt P25779)
# Test: Competitive inhibition of Trypanosoma cruzi cruzain assessed as unchanged initial velocity up to 25 uM using varying levels of Z-FR-AMC as substrate by Michaelis-Menten analysis
# Settings: dose microM <=25
row,Structure (SMILES),inhibition
1,c1ccc(CNc2nc(Nc3ccccc3)nc3ccccc23)cc1,Active

# Target: Cruzipain (Trypanosoma cruzi) (UniProt P25779)
# Test: Inhibition of recombinant Trypanosoma cruzi cruzain using Z-FR-AMC as substrate and compound-enzyme complex preincubated for 5 mins in presence of 0.1% Triton-X100 by fluorometry relative to control
# Settings: not given
row,Structure (SMILES),inhibition [%]
1,O=C(c1ccc(Nc2nc(NCCCO)c3ccccc3n2)cc1)N1CCOCC1,69
2,OCCCNc1nc(Nc2ccc(Cl)cc2)nc2ccccc12,35
3,Oc1cccc(Nc2nc(NCc3ccccc3)c3ccccc3n2)c1,33
4,OCCCNc1nc(NCc2ccccc2)c2ccccc2n1,33
5,Oc1ccc(Nc2nc(NCc3ccccc3)c3ccccc3n2)cc1,40
6,Clc1ccc(Nc2nc(NCCN3CCOCC3)c3ccccc3n2)cc1,80
7,O=C(c1ccc(Nc2nc(NCCN3CCOCC3)c3ccccc3n2)cc1)N1CCOCC1,73
8,OCCCNc1nc(Nc2cccc(F)c2)c2ccccc2n1,64
9,c1ccc(CNc2nc(Nc3nccs3)nc3ccccc23)cc1,22

# Target: Rhodesain (Trypanosoma brucei rhodesiense) (UniProt Q95PM0)
# Test: Inhibition of recombinant Trypanosoma brucei rhodesiense MVAT4 rhodesain expressed in Pichia pastoris at 100 uM using Z-FR-AMC as substrate by fluorometry relative to control
# Settings: not given
# Rhodesain (Trypanosoma brucei rhodesiense), sequence (Q95PM0 1-450): as the sequence (Q95PM0 whole entry) above
row,Structure (SMILES),inhibition [%]
1,O=C(c1ccc(Nc2nc(NCCCO)c3ccccc3n2)cc1)N1CCOCC1,62
2,OCCCNc1nc(Nc2ccc(Cl)cc2)nc2ccccc12,63
3,Oc1cccc(Nc2nc(NCc3ccccc3)c3ccccc3n2)c1,98
4,OCCCNc1nc(NCc2ccccc2)c2ccccc2n1,47
5,Oc1ccc(Nc2nc(NCc3ccccc3)c3ccccc3n2)cc1,95
6,Clc1ccc(Nc2nc(NCCN3CCOCC3)c3ccccc3n2)cc1,48
7,O=C(c1ccc(Nc2nc(NCCN3CCOCC3)c3ccccc3n2)cc1)N1CCOCC1,36
8,c1ccc(CNc2nc(Nc3ccccc3)nc3ccccc23)cc1,77
9,OCCCNc1nc(Nc2cccc(F)c2)c2ccccc2n1,56
10,c1ccc(CNc2nc(Nc3nccs3)nc3ccccc23)cc1,100

# Target: Cruzipain (Trypanosoma cruzi) (UniProt P25779)
# Test: Inhibition of recombinant Trypanosoma cruzi cruzain using Z-FR-AMC as substrate when compound was preincubated for 5 mins in presence of BSA and 0.001% Triton-X100 followed by further incubation for 5 mins in presence of enzyme relative to control
# Settings: time 10.0 min
row,Structure (SMILES),inhibition [%]
1,O=C(c1ccc(Nc2nc(NCCCO)c3ccccc3n2)cc1)N1CCOCC1,51
2,OCCCNc1nc(Nc2ccc(Cl)cc2)nc2ccccc12,35
3,Oc1cccc(Nc2nc(NCc3ccccc3)c3ccccc3n2)c1,44
4,OCCCNc1nc(NCc2ccccc2)c2ccccc2n1,30
5,Oc1ccc(Nc2nc(NCc3ccccc3)c3ccccc3n2)cc1,55
6,Clc1ccc(Nc2nc(NCCN3CCOCC3)c3ccccc3n2)cc1,62
7,O=C(c1ccc(Nc2nc(NCCN3CCOCC3)c3ccccc3n2)cc1)N1CCOCC1,42
8,c1ccc(CNc2nc(Nc3ccccc3)nc3ccccc23)cc1,43
9,OCCCNc1nc(Nc2cccc(F)c2)c2ccccc2n1,57
10,c1ccc(CNc2nc(Nc3nccs3)nc3ccccc23)cc1,53

# Target: Cruzipain (Trypanosoma cruzi) (UniProt P25779)
# Test: Inhibition of recombinant Trypanosoma cruzi cruzain using Z-FR-AMC as substrate and compound-enzyme complex preincubated for 5 mins in presence of 0.001% Triton-X100 by fluorometry relative to control
# Settings: not given
row,Structure (SMILES),inhibition [%]
1,O=C(c1ccc(Nc2nc(NCCCO)c3ccccc3n2)cc1)N1CCOCC1,53
2,OCCCNc1nc(Nc2ccc(Cl)cc2)nc2ccccc12,47
3,Oc1cccc(Nc2nc(NCc3ccccc3)c3ccccc3n2)c1,65
4,OCCCNc1nc(NCc2ccccc2)c2ccccc2n1,25
5,Oc1ccc(Nc2nc(NCc3ccccc3)c3ccccc3n2)cc1,81
6,Clc1ccc(Nc2nc(NCCN3CCOCC3)c3ccccc3n2)cc1,75
7,O=C(c1ccc(Nc2nc(NCCN3CCOCC3)c3ccccc3n2)cc1)N1CCOCC1,49
8,OCCCNc1nc(Nc2cccc(F)c2)c2ccccc2n1,58
9,c1ccc(CNc2nc(Nc3nccs3)nc3ccccc23)cc1,100

# Tested on: not listed separately
# Test: Cytotoxicity against mouse C2C12 cells
# Type: cell-based
# Settings: not given
row,Structure (SMILES),CC50 [µM]
1,O=C(c1ccc(Nc2nc(NCCCO)c3ccccc3n2)cc1)N1CCOCC1,> 10
2,OCCCNc1nc(Nc2ccc(Cl)cc2)nc2ccccc12,> 10
3,Oc1cccc(Nc2nc(NCc3ccccc3)c3ccccc3n2)c1,10
4,OCCCNc1nc(NCc2ccccc2)c2ccccc2n1,> 10
5,Oc1ccc(Nc2nc(NCc3ccccc3)c3ccccc3n2)cc1,> 10
6,Clc1ccc(Nc2nc(NCCN3CCOCC3)c3ccccc3n2)cc1,> 10
7,O=C(c1ccc(Nc2nc(NCCN3CCOCC3)c3ccccc3n2)cc1)N1CCOCC1,> 10
8,c1ccc(CNc2nc(Nc3ccccc3)nc3ccccc23)cc1,> 10
9,OCCCNc1nc(Nc2cccc(F)c2)c2ccccc2n1,> 10
10,c1ccc(CNc2nc(Nc3nccs3)nc3ccccc23)cc1,> 10

# Target: Cruzipain (Trypanosoma cruzi) (UniProt P25779)
# Test: Inhibition of recombinant Trypanosoma cruzi cruzain at 100 uM using Z-FR-AMC as substrate by fluorometry relative to control
# Settings: not given
row,Structure (SMILES),inhibition [%]
1,O=C(c1ccc(Nc2nc(NCCCO)c3ccccc3n2)cc1)N1CCOCC1,90
2,OCCCNc1nc(Nc2ccc(Cl)cc2)nc2ccccc12,87
3,Oc1cccc(Nc2nc(NCc3ccccc3)c3ccccc3n2)c1,100
4,OCCCNc1nc(NCc2ccccc2)c2ccccc2n1,100
5,Oc1ccc(Nc2nc(NCc3ccccc3)c3ccccc3n2)cc1,100
6,Clc1ccc(Nc2nc(NCCN3CCOCC3)c3ccccc3n2)cc1,95
7,O=C(c1ccc(Nc2nc(NCCN3CCOCC3)c3ccccc3n2)cc1)N1CCOCC1,85
8,OCCCNc1nc(Nc2cccc(F)c2)c2ccccc2n1,89
9,c1ccc(CNc2nc(Nc3nccs3)nc3ccccc23)cc1,100

# — ChEMBL document CHEMBL4831522, “Structure-Based Optimization of Quinazolines as Cruzain and TbrCATL Inhibitors” (J Med Chem, 2021)
